Laboratory results taken from patent US20260083126A1, “ANTIMICROBIAL COMPOSITIONS” (AHV International B.V., priority 2022, published 2026).
Values after ≈ are worked out from the molar mass of the structure shown.

Assays:
Format in all cases: cell-based
[1] = test system: Streptococcus agalactiae ATCC 13813; test: MIC assay; settings: Example 2a, n = 3, ATCC 13813
Procedure: (§1) The exact weighed amount was noted and the volume of solvent to reach a 80 mM dilution calculated. Half of the volume was added first, by adding Tween 80 and let stand for 5 minutes. In a second step, the other half of the volume DMSO was added and resuspended to help the dilution process. The closed tube was inverted 5-10 times and then vortexed very thoroughly for at least 30 seconds. If after this procedure crystals were still visible, the tube was placed in a shaker at 37° C. at 150 rpm for at least 30 minutes (it is indicated if the dissolution period was longer than 2 h). […] In case of Bis(4-Chlorophenyl) thiosulfonate, a lower concentrated stock solution of 2 mM needed to be prepared. For that, the required amount of compound was weighed in and 2% v/v Tween80 and 2% v/v DMSO of the end volume of the stock solution was added to the substance. This mix was heated in a water bath set to 40° C. and occasionally shaken. When the whole amount of the substance reached dissolution, the volume was filled up with growth medium until the end volume. This 2 mM stock solution of Bis(4-Chlorophenyl) thiosulfonate was used in the MIC plate and diluted two-fold, resulting in a testing range of Bis(4-Chlorophenyl) thiosulfonate from 1 mM to 0.002 mM.
(§2) The microorganisms as indicated in Table 4 were used to inoculate a tryptic soy agar (TSA) plate and incubated overnight at 37° C. After incubation 3-5 well-isolated colonies with the same morphology were selected from the TSA plate and resuspended in 2 mL 0.9% saline solution with 3-6 glass beads and vortexed. The optical density at 600 nm (OD600) of the bacterial suspension was measured with a spectrophotometer (Evolution™ 201/220 UV-Visible Spectrophotometer, Thermo Fisher Scientific) and diluted to an OD600 of 0.0008, which resembles 10^6 CFU/mL.
(§3) The MIC assay was performed in a flat-bottom 96-microtiter plate. 50 μL of MHB-II was added into columns 2-11, and 100 μL to column 12 for sterility control. 100 μL of the 8 mM test compound solution (method 1) was added to column 1. A two-fold dilution series of the solution in MHB-II was achieved by resuspending 50 μL of the 8 mM solution from column 1 to column 2. This step was repeated until column 10. The respective concentration of Tween 80 and DMSO in column 1 was 2.5%, which is two-fold diluted throughout the plate. 50 μL of the bacterial suspension was added to column 1-11. The microtiter plates were sealed with adhesive polyethylene film for sealing microplates (Diversified Biotech) and incubated for 24 h at 37° C. After incubation the OD was measured at 600 nm with the Varioskan (Thermo Fisher Scientific). The minimal concentration which causes reduction of final OD600 of the bacterial culture by 50% (MIC50) and by 90% (MIC90) was calculated after normalization of the obtained OD values to the growth control in column 11. This assay was repeated three times in three independent experiments.
(§4) Hereafter, the stock solutions of the compounds were used in three repetitions in a minimal inhibitory concentration (MIC) assay at a 2-fold dilution range with various bacteria from the gram-positive and gram-negative group and a yeast, Candida albicans. The concentrations that show only less than 10% growth after 24 h were considered the MIC90-values, whereas the concentrations that show 50% growth after 24 h when compared to the bacterial growth control were considered the MIC50-values. Escherichia coli and Staphylococcus aureus were used as representatives for a gram-negative bacteria and gram-positive bacteria, respectively. Furthermore, the yeast C. albicans was also tested.
(§5) In an Eppendorf tube between 10-20 mg of the test compound was weighed. Hereafter, the required amount of Tween 80 was added, followed by the amount DMSO. After vigorous shaking, the dissolved and transparent dilutions were diluted 10 times with Mueller Hinton Broth (MHB) for the MIC assay. […]

[2] = test system: Klebsiella pneumoniae ATCC 13883; test: MIC assay; settings: Example 2a, n = 3, ATCC 13883
Procedure: as §1, §2, §3, §4, §5

[3] = test system: Streptococcus Suis Type 2 21-018358-002; test: MIC assay; settings: Example 2a, n = 3, 21-018358-002
Procedure: as §1, §2, §3, §4, §5

[4] = test system: Staphylococcus aureus (MRSA) LUH14616; test: MIC assay; settings: Example 2a, n = 3, LUH14616
Procedure: as §1, §2, §3, §4, §5

[5] = test system: Escherichia coli ATCC 25922; test: MIC assay; settings: Example 2a, n = 3, ATCC 25922
Procedure: as §1, §2, §3, §4, §5

[6] = test system: Streptococcus uberis ATCC 27985; test: MIC assay; settings: Example 2a, n = 3, ATCC 27985
Procedure: as §1, §2, §3, §4, §5

[7] = test system: Acinetobacter baumanni RUH875; test: MIC assay; settings: Example 2a, n = 3, RUH875
Procedure: as §1, §2, §3, §4, §5

Candida albicans Y01-19 = test: MBC assay (Minimal Bactericide Concentration); settings: for effect at concentrations of growth inhibition (MIC90), C. albicans: MBC compared to MIC90; for MBC Candida albicans: Y01-19, n = 3, no colonies on agar plate after 20 h
Procedure: as §4
(§6) The Minimal Bactericide Concentration (MBC) of two compounds were determined, namely diisopropyl thiosulfonate and di-n-propyl thiosulfonate. […] This assay was performed per strain of E. coli, S. aureus, and C. albicans three independent times. Therefore, the standard deviation could also be calculated (Table 10).

[8] = test system: Escherichia coli ATCC 25922; test: MBC assay (Minimal Bactericide Concentration); settings: for MBC Escherichia coli: ATCC 25922, n = 3, no colonies on agar plate after 20 h; for effect at concentrations of growth inhibition (MIC90), E. coli: MBC compared to MIC90
Procedure: as §4, §6

[9] = test system: Staphylococcus aureus LUH 14616; test: MBC assay (Minimal Bactericide Concentration); settings: for MBC Staphylococcus aureus: LUH 14616, n = 3, no colonies on agar plate after 20 h; for effect at concentrations of growth inhibition (MIC90), S. aureus: higher MBC values compared to MIC90 values
Procedure: as §4, §6

[10] = listed as diisopropyl thiosulfonate Batch A
[11] = listed as diisopropyl thiosulfonate Batch C

MIC50 Streptococcus agalactiae (+) [1]	MIC90 Streptococcus agalactiae (+) [1]	MIC50 Klebsiella pneumoniae [2]	MIC90 Klebsiella pneumoniae [2]	MIC50 Streptococcus Suis Type 2 (+) [3]	MIC90 Streptococcus Suis Type 2 (+) [3]	MIC50 Staphylococcus aureus (+) (MRSA) [4]	MIC90 Staphylococcus aureus (+) (MRSA) [4]	MIC50 Escherichia coli [5]	MIC90 Escherichia coli [5]	MIC50 Streptococcus uberis (+) [6]	MIC90 Streptococcus uberis (+) [6]	MIC50 Acinetobacter baumanni [7]	MIC90 Acinetobacter baumanni [7]	Compound	effect at concentrations of growth inhibition (MIC90), C. albicans (Candida albicans Y01-19)	MBC Escherichia coli [8]	effect at concentrations of growth inhibition (MIC90), E. coli [8]	effect at concentrations of growth inhibition (MIC90), S. aureus [9]	also measured
1040 µM (≈ 281 µg/mL)	1670 µM (≈ 451 µg/mL)	2500 µM (≈ 676 µg/mL)	>4000 µM	380 µM (≈ 103 µg/mL)	830 µM (≈ 224 µg/mL)	280 µM (≈ 75.7 µg/mL)	1770 µM (≈ 478 µg/mL)	1000 µM (≈ 270 µg/mL)	>4000 µM	420 µM (≈ 114 µg/mL)	1500 µM (≈ 405 µg/mL)	2000 µM (≈ 541 µg/mL)	>4000 µM	[O-][S+](Sc1ccc(F)cc1)c1ccc(F)cc1 (stereo not drawn) [Bis (4-fluorophenyl) thiosulfinate, Bis(4-fluorophenyl) thiosulfinate]	–	–	–	–	–
1330 µM	1670 µM	>4000 µM	>4000 µM	750 µM	880 µM	<8 µM	1270 µM	1500 µM	>4000 µM	670 µM	1330 µM	2830 µM	>4000 µM	O=S(=O)(Sc1ccc(F)cc1)c1ccc(F)cc1 [Bis (4-fluorophenyl) thiosulfonate, Bis(4-fluorophenyl) thiosulfonate]	–	–	–	–	–
–	–	–	–	–	–	–	–	–	–	–	–	–	–	CC(C)SS(=O)(=O)C(C)C [Di-isopropyl thiosulfonate]	bactericidal effect	219 µM	bactericidal effect	bacteriostatic effect	MBC Candida albicans (Candida albicans Y01-19; [10]): 75 µM; MBC Candida albicans (Candida albicans Y01-19; [11]): 50 µM; MBC Staphylococcus aureus [9, 10]: 1500 µM; MBC Staphylococcus aureus [9, 11]: 1833 µM
–	–	–	–	–	–	–	–	–	–	–	–	–	–	CCCSS(=O)(=O)CCC [Di-n-propyl thiosulfonate, reference compound]	bactericidal effect	208 µM	bactericidal effect	bacteriostatic effect	MBC Candida albicans (Candida albicans Y01-19): 25 µM; MBC Staphylococcus aureus [9]: 1083 µM
